The source made the active and inactive calls. The calls are words filed in the database; no cut-off is given here.
What was measured:
[1] = (§1) Inhibition of dsDNA-induced cGAS signaling pathway in human THP1-Lucia ISG cells preincubated with compound for 24 hrs followed by HT-DNA addition and measured after 24 hrs by QUANTI-Luc luciferase reagent based assay; format: cell-based
[2] = test system: THP1-Lucia ISG; test: as §1; format: cell-based; settings: time 48.0 hrs
[3] = molecular target: T1, Protein cereblon/Cyclic GMP-AMP synthase (Homo sapiens, UniProt Q96SW2+Q8N884); test: PROTAC activity at CRBN/cGAS in human THP-1 cells assessed as induction of cGAS degradation by measuring maximal efficacy at 20 uM preincubated with compound for 40 hrs followed by HT-DNA stimulation and measured after 8 hrs by Western blot analysis relative to control; format: cell-based; settings: time 48.0 hrs
T1 sequence (Q8N884 whole entry, looked up): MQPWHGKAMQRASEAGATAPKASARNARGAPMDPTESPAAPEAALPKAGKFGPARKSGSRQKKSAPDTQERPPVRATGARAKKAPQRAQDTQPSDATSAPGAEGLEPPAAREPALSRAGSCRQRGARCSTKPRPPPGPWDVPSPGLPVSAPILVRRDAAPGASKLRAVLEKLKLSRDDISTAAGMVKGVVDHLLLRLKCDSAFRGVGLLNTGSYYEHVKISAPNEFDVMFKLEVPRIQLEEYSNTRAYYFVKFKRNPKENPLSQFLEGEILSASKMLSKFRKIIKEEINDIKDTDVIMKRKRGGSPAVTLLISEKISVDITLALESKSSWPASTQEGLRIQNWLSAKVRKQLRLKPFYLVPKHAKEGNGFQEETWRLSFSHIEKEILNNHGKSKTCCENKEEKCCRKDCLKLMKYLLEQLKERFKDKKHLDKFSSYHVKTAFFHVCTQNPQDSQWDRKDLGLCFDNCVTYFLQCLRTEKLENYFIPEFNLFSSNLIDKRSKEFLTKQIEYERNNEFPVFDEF
T1 sequence (Q96SW2 whole entry, looked up): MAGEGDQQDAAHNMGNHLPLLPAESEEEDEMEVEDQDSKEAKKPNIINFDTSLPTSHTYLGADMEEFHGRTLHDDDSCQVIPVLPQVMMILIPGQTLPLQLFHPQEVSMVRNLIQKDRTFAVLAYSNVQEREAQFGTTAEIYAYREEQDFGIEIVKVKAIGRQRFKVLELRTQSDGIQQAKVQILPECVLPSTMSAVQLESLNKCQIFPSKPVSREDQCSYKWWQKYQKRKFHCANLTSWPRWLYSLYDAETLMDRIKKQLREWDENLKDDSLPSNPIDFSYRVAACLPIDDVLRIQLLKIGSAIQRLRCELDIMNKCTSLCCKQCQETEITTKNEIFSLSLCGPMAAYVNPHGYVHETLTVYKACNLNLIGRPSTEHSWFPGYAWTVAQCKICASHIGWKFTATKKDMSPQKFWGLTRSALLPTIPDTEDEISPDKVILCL

[4] = molecular target: T2, Protein cereblon/Cyclic GMP-AMP synthase (Mus musculus) (UniProt Q8C6L5+Q8C7D2); test: PROTAC activity at CRBN/cGAS in mouse RAW264.7 cells assessed as induction of cGAS degradation by measuring maximal efficacy at 20 uM preincubated with compound for 40 hrs followed by HT-DNA stimulation and measured after 8 hrs by Western blot analysis relative to control; format: cell-based; settings: time 48.0 hrs
T2 sequence (Q8C6L5 whole entry, looked up): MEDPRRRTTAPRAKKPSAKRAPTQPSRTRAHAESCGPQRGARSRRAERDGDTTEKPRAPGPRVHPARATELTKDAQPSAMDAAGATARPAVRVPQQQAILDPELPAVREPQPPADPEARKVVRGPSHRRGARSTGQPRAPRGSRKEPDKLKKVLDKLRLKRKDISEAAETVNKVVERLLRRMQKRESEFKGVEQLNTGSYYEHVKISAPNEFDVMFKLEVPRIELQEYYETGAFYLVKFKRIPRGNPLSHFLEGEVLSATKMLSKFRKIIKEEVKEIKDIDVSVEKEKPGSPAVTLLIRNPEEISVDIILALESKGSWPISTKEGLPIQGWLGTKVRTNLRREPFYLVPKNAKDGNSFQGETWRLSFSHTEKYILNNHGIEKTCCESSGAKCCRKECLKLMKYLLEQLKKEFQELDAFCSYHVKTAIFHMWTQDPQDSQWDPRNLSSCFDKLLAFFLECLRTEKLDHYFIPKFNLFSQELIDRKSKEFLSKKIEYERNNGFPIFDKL
T2 sequence (Q8C7D2 whole entry, looked up): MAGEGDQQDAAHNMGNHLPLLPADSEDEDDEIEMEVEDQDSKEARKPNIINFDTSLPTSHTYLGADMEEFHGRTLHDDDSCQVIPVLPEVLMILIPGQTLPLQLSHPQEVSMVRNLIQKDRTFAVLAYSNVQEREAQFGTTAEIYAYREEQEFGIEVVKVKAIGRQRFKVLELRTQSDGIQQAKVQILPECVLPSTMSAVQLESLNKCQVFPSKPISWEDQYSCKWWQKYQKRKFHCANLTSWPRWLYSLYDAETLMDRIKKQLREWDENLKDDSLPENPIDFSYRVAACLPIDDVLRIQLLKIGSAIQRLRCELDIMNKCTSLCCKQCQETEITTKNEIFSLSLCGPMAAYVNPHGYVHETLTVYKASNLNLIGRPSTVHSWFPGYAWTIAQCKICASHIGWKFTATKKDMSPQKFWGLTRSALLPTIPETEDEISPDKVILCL

[5] = molecular target: T1, Protein cereblon/Cyclic GMP-AMP synthase; test: PROTAC activity at CRBN/cGAS in human THP-1 cells assessed as induction of cGAS degradation at 10 uM by Western blot analysis; format: cell-based; settings: time 1-24 hrs
[6] = molecular target: T1, Protein cereblon/Cyclic GMP-AMP synthase; test: PROTAC activity at CRBN/cGAS in human THP-1 cells assessed as induction of cGAS degradation at 10 uM preincubated with 1-(6,7-dichloro-9-(1-methyl-1H-pyrazol-3-yl)-1,3,4,5-tetrahydro-2H-pyrido[4,3-b]indol-2-yl)-2-hydroxyethan-1-one for 2 hrs followed by compound addition and measured after 48 hrs by Western blot analysis; format: cell-based
[7] = test system: THP-1; test: Inhibition of cGAMP production in human THP-1 cells at 5 to 20 uM preincubated with compound for 36 hrs followed by HT-DNA addition and measured after 6 hrs by LC-MS analysis; format: functional, cell-based; settings: dose 5-20 µM, time 42.0 hrs
[8] = test system: THP-1; test: Inhibition of ds-DNA induced cGAS-STING signaling pathway in human THP-1 cells assessed as reduction in STING phosphorylation preincubated with compound for 40 hrs followed by HT-DNA addition and measured after 8 hrs by Western blot analysis; format: cell-based; settings: dose 0.7-20 µM, time 48.0 hrs
[9] = test system: THP-1; test: Inhibition of ds-DNA induced cGAS-STING signaling pathway in human THP-1 cells assessed as reduction in IRF3 phosphorylation preincubated with compound for 40 hrs followed by HT-DNA addition and measured after 8 hrs by Western blot analysis; format: cell-based; settings: dose 0.7-20 µM, time 48.0 hrs
[10] = test system: RAW264.7; test: Inhibition of ds-DNA induced cGAS-STING signaling pathway in mouse RAW264.7 cells assessed as reduction in STING phosphorylation preincubated with compound for 40 hrs followed by HT-DNA addition and measured after 8 hrs by Western blot analysis; format: cell-based; settings: dose 0.7-20 µM, time 48.0 hrs
[11] = test system: THP-1; test: Downregulation of IFNB mRNA expression in human THP-1 cells preincubated with compound for 40 hrs followed by HT-DNA addition and measured after 8 hrs by qRT-PCR analysis; format: functional, cell-based; settings: dose 1.25-10 µM, time 48.0 hrs
[12] = test system: RAW264.7; test: Downregulation of IFNB mRNA expression in mouse RAW264.7 cells preincubated with compound for 40 hrs followed by HT-DNA addition and measured after 8 hrs by qRT-PCR analysis; format: functional, cell-based; settings: dose 2.5-20 µM, time 48.0 hrs
[13] = test system: RAW264.7; test: Downregulation of CXCL10 mRNA expression in mouse RAW264.7 cells preincubated with compound for 40 hrs followed by HT-DNA addition and measured after 8 hrs by qRT-PCR analysis; format: functional, cell-based; settings: dose 2.5-20 µM, time 48.0 hrs
[14] = test system: RAW264.7; test: Upregulation of IFNB mRNA expression level in mouse Trex1-/- RAW264.7 cells at 5 to 20 uM incubated for 24 hrs by qRT-PCR analysis; format: functional, cell-based; settings: dose 5-20 µM
[15] = test system: THP-1; test: Downregulation of IFNB mRNA expression level in cGAMP-induced human THP-1 cells at 20 uM preincubated with compound for 12 hrs followed by cGAMP addition and measured after 8 hrs by RT-qPCR analysis; format: functional, cell-based; settings: time 20.0 hrs
[16] = Cytotoxicity against human THP1-Lucia ISG cells assessed as reduction in cell viability upto 60 uM incubated for 48 hrs by CCK8 assay; format: toxicity, cell-based
[17] = MRT (0 to 24 hrs) in male C57BL/6 mouse at 1 mg/kg, iv measured after 24 hrs by LC-MS/MS analysis; format: ADME, organism-based; settings: in vivo
[18] = AUC (0 to infinity) in male C57BL/6 mouse at 20 mg/kg, ip measured after 24 hrs by LC-MS/MS analysis; format: ADME, organism-based; settings: in vivo
[19] = test system: Mus musculus; test: Anti-inflammatory activity in DSS-induced ulcerative colitis C57BL/6 mouse model assessed as decrease in disease activity index at 20 to 50 mg/kg/day, ip preadministered with DSS for 7 days followed by replacement with ultrapure water for 3 days with subsequent compound administration starting from day 4 to 10 and measured on day 11; format: functional, organism-based; settings: dose 20-50 mg/kg/day, time 8.0 day
[20] = test system: Mus musculus; test: Anti-inflammatory activity in DSS-induced ulcerative colitis C57BL/6 mouse model assessed as increase in colon length at 20 to 50 mg/kg/day, ip preadministered with DSS for 7 days followed by replacement with ultrapure water for 3 days with subsequent compound administration starting from day 4 to 10 and measured on day 11; format: functional, organism-based; settings: dose 20-50 mg/kg/day, time 8.0 day
[21] = test system: Mus musculus; test: Anti-inflammatory activity in DSS-induced ulcerative colitis C57BL/6 mouse model assessed as improvement in colon pathology at 20 to 50 mg/kg/day, ip preadministered with DSS for 7 days followed by replacement with ultrapure water for 3 days with subsequent compound administration starting from day 4 to 10 and measured on day 11 by H and E staining based analysis; format: functional, organism-based; settings: dose 20-50 mg/kg/day, time 8.0 day
[22] = molecular target: T2, Protein cereblon/Cyclic GMP-AMP synthase (Mus musculus); test: In vivo inhibition of cGAS signaling pathway in DSS-induced ulcerative colitis C57BL/6 mouse model assessed as reduction in cGAS protein level in colon preadministered with DSS for 7 days followed by replacement with ultrapure water for 3 days with subsequent intraperitoneal compound administration starting from day 4 to 10 and measured on day 11 by Western blot analysis; format: functional, organism-based; settings: dose 20-50 mg/kg/day, route ip, time 8.0 day
[23] = test system: Mus musculus; test: Anti-inflammatory activity in DSS-induced ulcerative colitis C57BL/6 mouse model assessed as reduction in IL-6 secretion in colon at 20 to 50 mg/kg/day, ip preadministered with DSS for 7 days followed by replacement with ultrapure water for 3 days with subsequent compound administration starting from day 4 to 10 and measured on day 11 by ELISA; format: functional, organism-based; settings: dose 20-50 mg/kg/day, time 8.0 day
[24] = test system: Mus musculus; test: Anti-inflammatory activity in DSS-induced ulcerative colitis C57BL/6 mouse model assessed as reduction in TNF-alpha secretion in colon at 20 to 50 mg/kg/day, ip preadministered with DSS for 7 days followed by replacement with ultrapure water for 3 days with subsequent compound administration starting from day 4 to 10 and measured on day 11 by ELISA; format: functional, organism-based; settings: dose 20-50 mg/kg/day, time 8.0 day
[25] = test system: Mus musculus; test: Anti-inflammatory activity in DSS-induced ulcerative colitis C57BL/6 mouse model assessed as reduction in mucosal NET formation by measuring reduction in citH3 level in colon at 20 to 50 mg/kg/day, ip preadministered with DSS for 7 days followed by replacement with ultrapure water for 3 days with subsequent compound administration starting from day 4 to 10 and measured on day 11 by immunofluorescence imaging analysis; format: functional, organism-based; settings: dose 20-50 mg/kg/day, time 8.0 day

SMILES: Cn1ccc(-c2cc(Cl)c(Cl)c3[nH]c4c(c23)CN(C(=O)CNC(=O)CCCC#Cc2cccc3c2CN(C2CCC(=O)NC2=O)C3=O)CC4)n1 (stereo not given)
- IC50 [1]: 1.8 µM
- inhibition [2]: Dose-dependent-effect
- Emax [3]: 94.4%
- Emax [4]: 91.6%
- Activity [5]: Time-dependent-effect
- Activity [6]: inactive
- inhibition [7]: Active
- inhibition [8]: Dose-dependent-effect
- inhibition [9]: Dose-dependent-effect
- inhibition [10]: Dose-dependent-effect
- Activity [11]: Dose-dependent-effect
- Activity [12]: Dose-dependent-effect
- Activity [13]: Dose-dependent-effect
- Activity [14]: Active
- Activity [15]: inactive
- Activity [16]: Non-toxic
- MRT last at 24 h [17]: 54 min
- AUC(0-inf) [18]: 2800 ng·h/mL
- Activity [19]: Active
- Activity [20]: Active
- Activity [21]: Active
- inhibition [22]: Dose-dependent-effect
- Activity [23]: Active
- Activity [24]: Active
- Activity [25]: Active

Source: ChEMBL document CHEMBL6103619, “Discovery of a Novel CRBN-Recruiting cGAS PROTAC Degrader for the Treatment of Ulcerative Colitis” (J Med Chem, 2025)
